# Experimental data published in patent US20250213474A1, “COMPOSITIONS AND METHODS FOR METAL CONTAINING FORMULATIONS CAPABLE OF MODULATING IMMUNE RESPONSE” (The Regents of the University of Michigan, priority 2021, published 2025).
# Tests used:
# CT26 colon cancer cells [1] = experiment: CT26 colon tumor model, metal ion-CDA combinations and coordination formulations; assay type: in vivo, Balb/c mice; design: concentration or dose not given beside the values; settings: three doses intratumoral on day 9, 12, 15
# Procedure: FIGS. 6A-6D: Enhanced STING activation and cancer therapy efficacy by Co^2+ and Mn^2+ in Vivo. (FIG. 6A) individual tumor growth curve after three doses of intratumor injection of the indicated formulation at day 9, 12, 15 after tumor inoculation. (FIG. 6B) Serum IFN-beta concentration 8 h after the 1st dose of the indicated formulation. (FIGS. 6C-6D) individual tumor growth (FIG. 6C) and survival (FIG. 6D) of the tumor bearing mice after treated with the indicated formulations.
# FIGS. 7A-7E: Enhanced STING activation by Co^2+ and Mn^2+ led to improved antigen specific immune response after In vivo. (FIG. 7A) the percentage of AH1-specific CD8+ T cells among PBMC on day 16. (FIG. 7B) IFN-γ secreting cells counts per 5E4 PBMCs after stimulation with AH1 peptides at day 22. […]
# All animals were cared for following federal, state, and local guidelines. […] Tumor size and survival were monitored every 2 or 3 days. Tumor size was calculated based on equation: volume=length×width^2×0.5. […] At day 17, the percentages of tumor antigen-specific CD8α+ T cells among PBMC were analyzed using the tetramer staining assay as described previously with peptide-MHC tetramer ([…] AH1) (the NIH Tetramer Core Facility, Atlanta, GA). […]
# CT26 colon cancer cells [2] = experiment: CT26 tumor model, I.V. administration of CMP; assay type: in vivo; settings: free CDA 100 μg; CMPCDA 20 μg
# Procedure: (FIG. 22A) CT26 tumor-bearing BALB/c mice were treated with CDA+ Mn^2+ or CMPCDA, I.V. on days 9, 12, and 15. […] (FIGS. 22D-22F) Tumor growth (FIGS. 22D-22E) and animal survival (FIG. 22F) were Monitored over time. (FIG. 22G) Survivors re-challenged with CT26 tumor cells on day 145 were monitored for tumor Growth and survival.
# For CT26 murine tumor model, female BALB/c mice of age 6-8 weeks (Jackson Laboratories) were inoculated with 1.5×10^5 CT26 colon cancer cells subcutaneously on the right back flank. […] Tumor-bearing mice were randomly assigned to different treatment groups. Indicated drugs or formulations were administrated via indicated route at indicated time points. Tumor size and survival were monitored every 2-4 days. Tumor size was calculated based on equation: volume=length×width^2×0.5. Animals were euthanized when the tumor reached 1.5 cm in diameter or when animals became moribund with severe weight loss or un-healing ulceration.
# To address this issue, we evaluated the therapeutic effect of CMP after I.V. administration. CT26 tumor-bearing BABL/c mice were treated I.V. on days 9, 12, and 15 with 20 μg CDA and 10 μg Mn^2+ either in CMPCDA or soluble form (FIG. 22A).
# NOOC1 tumor cells = experiment: NOOC1 ICB-resistant squamous cell carcinoma model; assay type: in vivo, C57BL/6 mice; settings: CDA dose 5 μg I.T. or 20 μg I.V., days 9, 12, 16, 20
# Procedure: NOOC1 was maintained in the IMDM media (Gibco cat #12440053). To make 1L of growth media for NOOC1, 626 ml IMDM base was mixed with 313 ml F-12 nutrient mix (Gibco cat #11765054), 50 ml FBS (Hyclone cat #SH3039603), 10 ml Pen Strep (Thermo Fisher cat #15-140-122), 1.25 ml of 4 mg/ml insulin (Invitrogen cat #12585014), 200 μl of 200 μg/ml hydrocortisone (Sigma-Aldrich cat #H0888-1G), and 50 μl of 100 μg/ml EGF (EMD Millipore cat #01-107). For in vivo implantation, Matrigel (Thermo Fisher cat #CB-40230) was thawed overnight at 4° C. On the day of injection, NOOC1 was washed once with PBS and mixed with Matrigel to reach a density of 2×10^7 cells/ml. Each mouse was inoculated subcutaneously with 2×10^6 cells (100 μl). Tumor size and survival were monitored every 2 or 3 days as indicated above.
# To further evaluate the potency of CMP, we performed head-to-head comparison studies between CMPCDA and other STING-activating formulations. C57BL/6 mice were inoculated at S.C. flank with 3×10^5 B16F10 tumors cells, and we administered three doses of CMPCDA on three-day intervals via either I.T. route when the average tumor volume reached 153±17 mm^3 (FIGS. 23A-23E) or via I.V. route when the average tumor volume reached 63±7 mm^3. (FIGS. 23F-23J)). […]
structure (smiles),measurement,setting,value
"Nc1ncnc2c1ncn2[C@@H]1O[C@@H]2COP(=O)(O)O[C@H]3[C@@H](O)[C@H](n4cnc5c(N)ncnc54)O[C@@H]3COP(=O)(O)O[C@H]2[C@H]1O [free CDA, cyclic-di-AMP]",survival rate,CT26 colon cancer cells [1],20%
same,control of tumor growth by I.V. therapy,CT26 colon cancer cells [2],could not control tumor growth
same,anti-tumor efficacy in NOOC1 model,NOOC1 tumor cells,refractory
